ChEMBL document CHEMBL1201862, “PubChem BioAssay data set” (2004)
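Dose response: 5 concentrations. Exposure: 48 h. Format: 96-well plates. Endpoint: linear interpolation; highest concentration if not reached. Abbreviation: GI50, concentration required for 50% inhibition of growth.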 Calls of active or inactive are those of the source. No stated cut-off is given here; in the data, active = GI50 up to about 1.1 µM and inactive = higher.

Legend:
Experiment in all cases: DTP human tumour cell line panel, 48 h
[1] = tested on: 786-0
[2] = tested on: SK-MEL-28
[3] = tested on: UACC-257
[4] = tested on: HOP-62
[5] = tested on: RXF 393
[6] = tested on: SNB-75
[7] = tested on: RPMI-8226
[8] = tested on: MDA-MB-231
[9] = tested on: NCI/ADR-RES
[10] = tested on: HT-29
[11] = tested on: OVCAR-8
[12] = tested on: T47D
[13] = tested on: LOX IMVI
[14] = tested on: CCRF-CEM
[15] = tested on: MDA-N
[16] = tested on: MOLT-4
[17] = tested on: UO-31
[18] = tested on: EKVX
[19] = tested on: SK-MEL-2
[20] = tested on: CAKI-1

Row | SMILES | GI50 [1] | GI50 [2] | GI50 [3] | GI50 [4] | GI50 [5] | GI50 [6] | GI50 [7] | GI50 [8] | GI50 [9] | GI50 [10] | GI50 [11] | GI50 [12] | GI50 [13] | GI50 [14] | GI50 [15] | GI50 [16] | GI50 [17] | GI50 [18] | GI50 [19] | GI50 [20]
1 | O=C(CCc1ccc(O)c(O)c1)NCCc1cc(O)c(O)c(O)c1 | 18.6 µM (inactive) | > 100 µM (inactive) | 50.1 µM (inactive) | 45.7 µM (inactive) | 66.7 µM (inactive) | 50.6 µM (inactive) | 36.7 µM (inactive) | 14.5 µM (inactive) | 18.1 µM (inactive) | 17.9 µM (inactive) | 20.4 µM (inactive) | 70.8 µM (inactive) | 17.7 µM (inactive) | 44.5 µM (inactive) | 16.9 µM (inactive) | 21.6 µM (inactive) | 44.6 µM (inactive) | 22.9 µM (inactive) | 21.8 µM (inactive) | 
2 | COc1ccc(-c2nnc3n(Cc4ccccc4)c4ccccc4n3c2=O)cc1 | 10.9 µM (inactive) | 36.4 µM (inactive) | 37.4 µM (inactive) | 1.92 µM (inactive) | 26.8 µM (inactive) | 11.9 µM (inactive) |  | 26.1 µM (inactive) | 55.8 µM (inactive) | > 100 µM (inactive) | 30.9 µM (inactive) | 45.6 µM (inactive) | 49.9 µM (inactive) | > 100 µM (inactive) | > 100 µM (inactive) | > 100 µM (inactive) | 39.9 µM (inactive) | 29.8 µM (inactive) | 14.8 µM (inactive) | 13.9 µM (inactive)
3 | COc1ccc(Nc2nn3c(=O)c4c(C)c(C)sc4nc3s2)cc1 | 23.2 µM (inactive) | 61.1 µM (inactive) | 29.9 µM (inactive) | 29.1 µM (inactive) | 19.7 µM (inactive) | 22.7 µM (inactive) |  | 78.7 µM (inactive) | 39.1 µM (inactive) | 42.3 µM (inactive) | 49.1 µM (inactive) | 25.7 µM (inactive) | 56.9 µM (inactive) | 31.6 µM (inactive) | 45.6 µM (inactive) | 43.2 µM (inactive) | 18 µM (inactive) |  | 35.6 µM (inactive) | 39.3 µM (inactive)
4 | O=C(NNC(=S)Nc1ccc(Cl)cc1)C12CC3CC(CC(C3)C1)C2 | 5.15 µM (inactive) | 14.8 µM (inactive) | 6.15 µM (inactive) | 11.2 µM (inactive) | 14.7 µM (inactive) | 15.6 µM (inactive) |  | 3.88 µM (inactive) | 3.56 µM (inactive) | 3.78 µM (inactive) | 3.52 µM (inactive) | 4.59 µM (inactive) | 2.53 µM (inactive) | 1.29 µM (inactive) | 10.2 µM (inactive) | 1.98 µM (inactive) | 1.38 µM (inactive) | 5.73 µM (inactive) | 14.3 µM (inactive) | 7.19 µM (inactive)
5 | COc1cccc(-c2cc(O)c3c(C)ccnc3n2)c1 | 0.0449 µM (active) |  |  | 0.0463 µM (active) | 0.0284 µM (active) | 0.0143 µM (active) | 0.0327 µM (active) | 0.279 µM (active) | 0.0224 µM (active) | 0.0233 µM (active) | 0.0646 µM (active) | 49 µM (inactive) | 0.0625 µM (active) | 0.029 µM (active) | < 0.01 µM (active) | 0.0407 µM (active) | 0.0703 µM (active) | 0.225 µM (active) | 0.0695 µM (active) | 
6 | O=C1CSC(=O)/C1=C\NNc1nc2ccccc2o1 | 40.2 µM (inactive) | 67 µM (inactive) | 29.7 µM (inactive) | 51.8 µM (inactive) | 21.8 µM (inactive) |  |  | 30.9 µM (inactive) | 12.5 µM (inactive) | 24.7 µM (inactive) | 13.6 µM (inactive) | 6.34 µM (inactive) | 22.4 µM (inactive) | 1.09 µM (active) | 52.1 µM (inactive) | 21 µM (inactive) |  | 34.5 µM (inactive) | 37.2 µM (inactive) | 23.9 µM (inactive)
7 | Cc1c(O)c(OC2OC(CO)C(O)C(O)C2O)cc2c1C=C[C@@H]1[C@@]2(C)C(=O)C[C@]2(C)[C@@H]([C@@](C)(O)C(O)/C=C/C(C)(C)O)[C@H](O)C[C@@]12C (stereo partly drawn) | > 100 µM (inactive) | > 100 µM (inactive) | > 100 µM (inactive) | > 100 µM (inactive) | > 100 µM (inactive) | > 100 µM (inactive) |  | > 100 µM (inactive) | > 100 µM (inactive) | > 100 µM (inactive) | > 100 µM (inactive) | > 100 µM (inactive) | > 100 µM (inactive) | > 100 µM (inactive) | > 100 µM (inactive) | > 100 µM (inactive) | > 100 µM (inactive) | > 100 µM (inactive) | > 100 µM (inactive) | > 100 µM (inactive)
8 | C=C(C)[C@@H]1CC[C@@]2(C)[C@H]1[C@H]1CCC3[C@@]4(C)CC[C@H](O)C(C)(C)[C@@H]4CC[C@@]3(C)[C@]1(C)C[C@@H]2O (stereo partly drawn) [CALENDULADIOL] | 38 µM (inactive) | > 100 µM (inactive) | 55.2 µM (inactive) | > 100 µM (inactive) | 25.9 µM (inactive) | 27.3 µM (inactive) |  | 46.6 µM (inactive) | 56.9 µM (inactive) | 24.4 µM (inactive) | 41.3 µM (inactive) | > 100 µM (inactive) | 46.2 µM (inactive) | 19.2 µM (inactive) | 43 µM (inactive) | 11.2 µM (inactive) |  | 33.7 µM (inactive) |  | 48.4 µM (inactive)
9 | c1ccc(-c2cc(-c3cc(-c4ccccc4)[nH]n3)[nH]n2)cc1 | > 100 µM (inactive) |  | > 100 µM (inactive) | > 100 µM (inactive) | > 100 µM (inactive) | > 100 µM (inactive) |  | > 100 µM (inactive) | > 100 µM (inactive) | > 100 µM (inactive) | > 100 µM (inactive) | > 100 µM (inactive) |  | > 100 µM (inactive) | > 100 µM (inactive) | > 100 µM (inactive) | > 100 µM (inactive) | > 100 µM (inactive) | > 100 µM (inactive) | > 100 µM (inactive)
10 | CC1(C)Cc2c(sc3[nH]c(=S)[nH]c(=S)c23)CS1 | 85.9 µM (inactive) | 22.4 µM (inactive) | 18.2 µM (inactive) | 88.3 µM (inactive) | 60.8 µM (inactive) |  | 25.1 µM (inactive) | 66.8 µM (inactive) | 43.4 µM (inactive) | 27.1 µM (inactive) | 90.2 µM (inactive) | 20.3 µM (inactive) | 32.8 µM (inactive) | 29.4 µM (inactive) | 33.9 µM (inactive) | 43 µM (inactive) | 31.8 µM (inactive) |  | 38.4 µM (inactive) | 30.5 µM (inactive)
11 | Cc1nn(C)c2nc3ccc(Cl)cc3c(-c3ccccc3)c12 | > 100 µM (inactive) | > 100 µM (inactive) | > 100 µM (inactive) | > 100 µM (inactive) | > 100 µM (inactive) | > 100 µM (inactive) | > 100 µM (inactive) | > 100 µM (inactive) | > 100 µM (inactive) | > 100 µM (inactive) | > 100 µM (inactive) | > 100 µM (inactive) |  | > 100 µM (inactive) | > 100 µM (inactive) | > 100 µM (inactive) | > 100 µM (inactive) | > 100 µM (inactive) | > 100 µM (inactive) | > 100 µM (inactive)
12 | Cc1cc(S(=O)(=O)O)ccc1/N=N/c1c(O)ccc2ccccc12 | > 100 µM (inactive) | > 100 µM (inactive) | > 100 µM (inactive) | > 100 µM (inactive) | > 100 µM (inactive) | > 100 µM (inactive) | > 100 µM (inactive) | > 100 µM (inactive) | > 100 µM (inactive) | 82.2 µM (inactive) | > 100 µM (inactive) | > 100 µM (inactive) |  | > 100 µM (inactive) | > 100 µM (inactive) | > 100 µM (inactive) | > 100 µM (inactive) | > 100 µM (inactive) | > 100 µM (inactive) | > 100 µM (inactive)
13 | C1=C(c2ccccc2)Nc2nnnn2C1c1ccccc1 (stereo not drawn) | 47.2 µM (inactive) |  | 48.1 µM (inactive) | 38.5 µM (inactive) | 16.7 µM (inactive) |  | < 0.01 µM (active) | > 100 µM (inactive) | 44 µM (inactive) | 17.4 µM (inactive) | 34.9 µM (inactive) | 47.1 µM (inactive) | 17.3 µM (inactive) | 0.0125 µM (active) | 20.1 µM (inactive) | 22 µM (inactive) | > 100 µM (inactive) |  | 27.5 µM (inactive) | 47.6 µM (inactive)
14 | Cc1ccc2c(c1)Nc1cc(C(F)(F)F)ccc1[PH]2=O (stereo not drawn) | 66.4 µM (inactive) | 78.5 µM (inactive) | 28.2 µM (inactive) | 29.1 µM (inactive) | 23.2 µM (inactive) | 11.8 µM (inactive) |  | 13.7 µM (inactive) | 67.1 µM (inactive) | 21.9 µM (inactive) | 63.5 µM (inactive) | 27.6 µM (inactive) | 26.1 µM (inactive) | 14.9 µM (inactive) | 41.2 µM (inactive) | 11 µM (inactive) | 0.225 µM (active) | 3.78 µM (inactive) | 31 µM (inactive) | 47.4 µM (inactive)
15 | CC(=O)[C@H]1[C@H](O)C[C@@]2(C)[C@@H]3CCc4cc(O)c(OC5OC(CO)C(O)C(O)C5O)cc4C3(C)C(=O)C[C@]12C (stereo partly drawn) | > 100 µM (inactive) | > 100 µM (inactive) | > 100 µM (inactive) | > 100 µM (inactive) | > 100 µM (inactive) | > 100 µM (inactive) |  | > 100 µM (inactive) | > 100 µM (inactive) | > 100 µM (inactive) | > 100 µM (inactive) | > 100 µM (inactive) | > 100 µM (inactive) | > 100 µM (inactive) | > 100 µM (inactive) | > 100 µM (inactive) | > 100 µM (inactive) | > 100 µM (inactive) | > 100 µM (inactive) | > 100 µM (inactive)
